From patent US20240158392A1 (Janssen Biotech, Inc., priority 2021, published 2024)

Legend:
SIK2 [1] = target: T1, SIK2 (Homo sapiens, UniProt Q9H0K1); assay: SIK2 Enzymatic Assay Version 1 (ADP Glo); format: biochemical; settings: enzyme 0.6 nM, 160 μM ATP and 140 μM HDAC5tide (each 2× final concentration); 30 minutes pre-incubation, 4 hours; ADPGlo luminescence; read-out: SIK2 ADP Glo IC50 (μM) (Test Example 1)
How it was run: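 Kinase activity read as ADP production by ADP-Glo luminescence, all steps at room temperature. Compound and SIK2 (0.6 nM, a 2× concentration) were preincubated 30 min; ATP-only wells lacking peptide were the negative control; depletion 40 min, detection ≥30 min.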

SIK2 [2] = target: T1, SIK2; assay: SIK2 Enzymatic Assay High Version 2 (High ATP); format: biochemical
How it was run: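 At room temperature, enzyme (6 nM, 2× final) was preincubated with compound for 30 min, then 6 mM ATP and 400 μM HDAC5tide (both 2× final) were added for 2 h. ADP formed was measured by ADP-Glo Max (2 h reagent, 1 h detection) using luminescence.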

T1 sequence (Q9H0K1 whole entry, species assumed): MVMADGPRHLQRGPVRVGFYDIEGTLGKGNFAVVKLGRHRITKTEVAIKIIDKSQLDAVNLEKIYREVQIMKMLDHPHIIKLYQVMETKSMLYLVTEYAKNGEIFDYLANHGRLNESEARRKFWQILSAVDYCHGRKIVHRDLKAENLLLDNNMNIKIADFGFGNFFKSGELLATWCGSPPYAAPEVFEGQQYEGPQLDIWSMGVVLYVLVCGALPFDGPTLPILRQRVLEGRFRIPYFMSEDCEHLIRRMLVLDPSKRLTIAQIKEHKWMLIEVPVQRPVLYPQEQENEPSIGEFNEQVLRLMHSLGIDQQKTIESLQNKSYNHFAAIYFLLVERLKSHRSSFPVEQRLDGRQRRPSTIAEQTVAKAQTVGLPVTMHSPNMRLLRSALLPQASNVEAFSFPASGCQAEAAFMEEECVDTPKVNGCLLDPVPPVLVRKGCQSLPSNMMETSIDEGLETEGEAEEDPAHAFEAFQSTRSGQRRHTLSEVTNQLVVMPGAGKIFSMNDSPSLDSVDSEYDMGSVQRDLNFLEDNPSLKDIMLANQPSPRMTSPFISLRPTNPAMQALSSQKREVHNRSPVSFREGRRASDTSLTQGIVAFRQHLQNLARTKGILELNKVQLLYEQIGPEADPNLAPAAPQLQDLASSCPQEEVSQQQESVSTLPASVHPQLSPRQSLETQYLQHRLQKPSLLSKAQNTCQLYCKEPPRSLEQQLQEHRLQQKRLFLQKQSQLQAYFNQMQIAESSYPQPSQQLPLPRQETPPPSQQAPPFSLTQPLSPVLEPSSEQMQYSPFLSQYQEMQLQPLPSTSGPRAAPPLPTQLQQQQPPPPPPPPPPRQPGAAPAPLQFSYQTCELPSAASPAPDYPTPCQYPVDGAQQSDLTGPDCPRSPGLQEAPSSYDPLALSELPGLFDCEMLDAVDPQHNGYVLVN

Row | IC50 (SIK2 [1]) [µM] | IC50 (SIK2 [2]) [nM] | Compound
1 | 0.00442 | 50.7 | C[C@@H](Oc1ccc(C#N)cc1-c1ccn2nc(NC(=O)C3CC3)cc2c1)[C@@H]1CNCCO1 (single isomer, unassigned) [Example 477, (2*R, 1*S)—N-[5-[5-cyano-2-(1-morpholin-2-ylethoxy)phenyl]pyrazolo[1,5-a]pyridin-2-yl]cyclopropanecarboxamide]
2 | 0.000957 | 25.2 | C[C@@](O)(COc1cnc(C#N)cc1-c1ccn2nc(NC(=O)C3CC3)cc2c1)C(F)(F)F (single isomer, unassigned) [Example 49, (*R)—N-(5-(2-Cyano-5-(3,3,3-trifluoro-2-hydroxy-2-methylpropoxy)pyridin-4-yl)pyrazolo[1,5-a]pyridin-2-yl)cyclopropanecarboxamide]
3 | 0.00575 | 145 | CN1CC[C@@H](Oc2cnc(C#N)cc2-c2ccn3nc(NC(=O)C4CC4)cc3c2)C[C@H]1C(F)(F)F (single isomer, unassigned) [Example 29, N-(5-(2-cyano-5-(((2*S,4*R)-1-methyl-2-(trifluoromethyl)piperidin-4-yl)oxy)pyridin-4-yl)pyrazolo[1,5-a]pyridin-2-yl)cyclopropanecarboxamide]
4 | 0.0047 | 111 | CN1CCC(Oc2cnc(C#N)cc2-c2ccn3nc(NC(=O)C4CC4)cc3c2)C1 (single isomer, unassigned) [Example 59, (*S)—N-(5-(2-cyano-5-((1-methylpyrrolidin-3-yl)oxy)pyridin-4-yl)pyrazolo[1,5-a]pyridin-2-yl)cyclopropanecarboxamide]
5 | 0.00307 | 50.7 | Cc1cc(-c2ccn3nc(NC(=O)C4CC4)cc3c2)c(OCC2(F)CN(C)C2)cn1 [Example 169, N-[5-[5-[(3-fluoro-1-methyl-azetidin-3-yl)methoxy]-2-methyl-4-pyridyl]pyrazolo[1,5-a]pyridin-2-yl]cyclopropanecarboxamide]
6 | 0.00111 | 21.9 | C[C@](O)(COc1cnc(C#N)cc1-c1ccn2nc(NC(=O)C3CC3)cc2c1)C(F)(F)F (single isomer, unassigned) [Example 50, (*S)—N-(5-(2-Cyano-5-(3,3,3-trifluoro-2-hydroxy-2-methylpropoxy)pyridin-4-yl)pyrazolo[1,5-a]pyridin-2-yl)cyclopropanecarboxamide]
7 | 0.0041 | 53.5 | CCOC(=O)CN[C@H]1C[C@@H](COc2cnc(C#N)cc2-c2ccn3nc(NC(=O)C4CC4)cc3c2)C1 [Example 598, ethyl 2-[[3-[[6-cyano-4-[2-(cyclopropanecarbonylamino)pyrazolo[1,5-a]pyridin-5-yl]-3-pyridyl]oxymethyl]cyclobutyl]amino]acetate]
8 | 0.000323 | 3.75 | CC#Cc1cc(-c2ccn3nc(NC(=O)C4CC4)cc3c2)c(OC2CN(C)C2)cn1 [Example 442, N-[5-[5-(1-methylazetidin-3-yl)oxy-2-prop-1-ynyl-4-pyridyl]pyrazolo[1,5-a]pyridin-2-yl]cyclopropanecarboxamide]
9 | 0.061 | 806 | CCOc1cnc(C)cc1-c1ccn2nc(NC(=O)C3CC3)cc2c1 [Example 752, N-[5-(5-ethoxy-2-methyl-4-pyridyl)pyrazolo[1,5-a]pyridin-2-yl]cyclopropanecarboxamide]
10 | 0.00412 | 61.1 | CCOc1cnc(C#N)cc1-c1ccn2nc(NC(=O)C3CC3)cc2c1 [Example 583, N-[5-(2-cyano-5-ethoxy-4-pyridyl)pyrazolo[1,5-a]pyridin-2-yl]cyclopropanecarboxamide]
11 | 0.000208 | < 0.838 | Cc1cc(-c2ccn3nc(NC(=O)C4CC4)cc3c2)c(O[C@H]2C[C@H]3COC[C@@H](C2)N3)cn1 [Example 136, endo-N-(5-(5-(((1R,5S,7s)-3-oxa-9-azabicyclo[3.3.1]nonan-7-yl)oxy)-2-methylpyridin-4-yl)pyrazolo[1,5-a]pyridin-2-yl)cyclopropanecarboxamide]
12 | 0.00243 | 58.5 | N#Cc1cc(-c2ccn3nc(NC(=O)C4CC4)cc3c2)c(OCC2(O)CCC2)cn1 [Example 41, N-[5-[2-cyano-5-[(1-hydroxycyclobutyl)methoxy]-4-pyridyl]pyrazolo[1,5-a]pyridin-2-yl]cyclopropanecarboxamide]
13 | 0.0012 | 11.5 | Cc1ccnc(Nc2cc3cc(-c4cc(C)ncc4OC[C@@H]4CNCCO4)ccn3n2)c1 [Example 427, 5-[2-methyl-5-[[(2S)-morpholin-2-yl]methoxy]-4-pyridyl]-N-(4-methyl-2-pyridyl)pyrazolo[1,5-a]pyridin-2-amine]
14 | 0.000791 | 10.3 | CN1CC[C@@H](COc2cnccc2-c2ccn3nc(NC(=O)C4CC4)cc3c2)C1 [Example 489, N-[5-[3-[[(3R)-1-methylpyrrolidin-3-yl]methoxy]-4-pyridyl]pyrazolo[1,5-a]pyridin-2-yl]cyclopropanecarboxamide]
15 | 0.00013 | < 0.838 | N#Cc1cc(-c2ccn3nc(NC(=O)C4CC4)cc3c2)c(OC2C[C@H]3COC[C@@H](C2)N3)cn1 (stereo partly drawn) [Example 92, (3-endo)-N-[5-[2-cyano-5-[[(1R,5S)-3-oxa-9-azabicyclo[3.3.1]nonan-7-yl]oxy]-4-pyridyl]pyrazolo[1,5-a]pyridin-2-yl]cyclopropanecarboxamide]
16 | 0.00124 | 26 | N#Cc1cc(-c2ccn3nc(NC(=O)C4CC4)cc3c2)c(OCC2(N)CCC2)cn1 [Example 44, N-[5-[5-[(1-aminocyclobutyl)methoxy]-2-cyano-4-pyridyl]pyrazolo[1,5-a]pyridin-2-yl]cyclopropanecarboxamide]
17 | 0.00298 | 51.1 | CN1CCC[C@@H](Oc2cnc(C#N)cc2-c2ccn3nc(NC(=O)C4CC4)cc3c2)C1 [Example 88, (R)—N-(5-(2-cyano-5-((1-methylpiperidin-3-yl)oxy)pyridin-4-yl)pyrazolo[1,5-a]pyridin-2-yl)cyclopropanecarboxamide]
18 | 0.00342 | 59.6 | N#Cc1cc(-c2ccn3nc(NC(=O)C4CC4)cc3c2)c(OC[C@@H]2CCN(CC(F)(F)F)C2)cn1 [Example 588, N-[5-[2-cyano-5-[[(3R)-1-(2,2,2-trifluoroethyl)pyrrolidin-3-yl]methoxy]-4-pyridyl]pyrazolo[1,5-a]pyridin-2-yl]cyclopropanecarboxamide]
19 | 0.00175 | 14 | Cc1cc(-c2ccn3nc(Nc4ccn(C)n4)cc3c2)c(O[C@H]2CC[C@@H](O)CC2)cn1 [Example 184, cis-4-[[6-methyl-4-[2-[(1-methylpyrazol-3-yl)amino]pyrazolo[1,5-a]pyridin-5-yl]-3-pyridyl]oxy]cyclohexanol]

Row | Compound | IC50 (SIK2 [1]) [µM] | IC50 (SIK2 [2]) [nM]
20 | Cc1cc(-c2ccn3nc(NC(=O)C4CC4)cc3c2)c(O[C@@H]2CC[C@@H](N)C2)cn1 [Example 153, N-[5-[5-[(1R,3R)-3-aminocyclopentoxy]-2-methyl-4-pyridyl]pyrazolo[1,5-a]pyridin-2-yl]cyclopropanecarboxamide] | 0.000688 | 13.7
21 | Cc1cc(-c2ccn3nc(NC(=O)C4CC4)cc3c2)c(O[C@H]2C[C@H](N)C2)cn1 [Example 170, trans-N-[5-[5-(3-aminocyclobutoxy)-2-methyl-4-pyridyl]pyrazolo[1,5-a]pyridin-2-yl]cyclopropanecarboxamide] | 0.000853 | 12.9
